Source: US20020137929A1, “1 - (3-heterocyclylphenyl) isothiourea, -isourea, -guanidine and -amidine herbicidal agents” (Intellectual Property Department, BASF Aktiengesellschaft, priority 1998, published 2002)

What was measured:
CASOB (Sicklepod) = test: Postemergence herbicidal evaluation; format: in vivo, Cassia obtusifolia; details: postemergence
Method in brief: (§1)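 Young plants, roughly two weeks from seeding, receive the active ingredient as a sprayed dispersion (acetone/water 50/50, 0.5% TWEEN 20) at 40 psi. Doses span about 0.0156 to 0.500 kg/ha. A visual score from 0 to 9 compares treated with control plants four to five weeks on.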

GALAP (Galium) = test: Postemergence herbicidal evaluation; format: in vivo, Galium aparine; details: postemergence
Method in brief: as §1

ZEAMX (Corn, Field) [1] = test: Postemergence herbicidal evaluation; format: in vivo, Zea mays; details: postemergence
Method in brief: as §1

AMBEL (Ragweed, Common) = test: Preemergence herbicidal evaluation; format: in vivo, Ambrosia artemisifolia; details: rated 4-5 weeks after treatment
Method in brief: (§2)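 Herbicidal effect scored visually, 0-9, at 4 to 5 weeks against a control; compound applied preemergence by aqueous acetone spray to seeded soil at about 0.0156 to 0.500 kg/ha.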

[2] = system: CHEAL (Lambsquarters, Common); test: Preemergence herbicidal evaluation; format: in vivo, Chenopodium album; details: rated 4-5 weeks after treatment
Method in brief: as §2

[3] = system: IPOHE (Morningglory, Ivyleaf); test: Preemergence herbicidal evaluation; format: in vivo, Ipomoea hederacea; details: rated 4-5 weeks after treatment
Method in brief: as §2

ORYSAT (Rice, Tebonnet) = test: Preemergence herbicidal evaluation; format: in vivo, Oryza sativa, (L.) Tebonnet; details: rated 4-5 weeks after treatment
Method in brief: as §2

[4] = system: TRZAWR (Wheat, Winter, cv Riband); test: Preemergence herbicidal evaluation; format: in vivo, Triticum aestivum; details: rated 4-5 weeks after treatment
Method in brief: as §2

ZEAMX (Corn, Field) [5] = test: Preemergence herbicidal evaluation; format: in vivo, Zea mays; details: rated 4-5 weeks after treatment
Method in brief: as §2

[6] = system: ECHORC (Watergrass (Calif.)); test: Preemergence weed control under flooded paddy conditions; format: in vivo, Echinochloa oryzoides; details: rated 3-4 weeks after treatment
Method in brief: (§3)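 Visual injury scored 0-9 against control three to four weeks post-treatment, greenhouse-grown. Application: acetone/water (50/50) solutions dosed directly into flood water (1.5-3 cm over silt loam, planted top 0.5 cm), roughly 0.0313 to 0.500 kg/ha active ingredient.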

CYPIR (Rice Flatsedge) = test: as above; format: in vivo, Cyperus iria; details: rated 3-4 weeks after treatment
Method in brief: as §3

CYPSE (Flatsedge) [7] = test: as above; format: in vivo, Cyperus serotinus; details: rated 3-4 weeks after treatment
Method in brief: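 Ratings on a 0-9 visual scale cover stand, vigor, malformation, size, chlorosis and overall appearance relative to a control, taken three to four weeks post-treatment. Application was into flood water over freshly sown silt loam at roughly 0.0313 to 0.500 kg/ha.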

[8] = system: ECHORC (Watergrass (Calif.)); test: Postemergence weed control under flooded paddy conditions; format: in vivo, Echinochloa oryzoides; details: postemergence weeds, 3-4 weeks after treatment
Method in brief: (§4)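 Flood-water application, about 0.0313–0.500 kg/ha a.i. in aqueous/acetone 50/50 v/v; water depth 1.5–3 cm throughout. Weeds 3–5 cm, rice 1.5–2.5 leaf. Greenhouse; 0–9 visual rating vs control at 3–4 wk.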

CYPSE (Flatsedge) [9] = test: as above; format: in vivo, Cyperus serotinus; details: postemergence weeds, 3-4 weeks after treatment
Method in brief: as §4

CCOC(=O)CN1C(=O)C(F)SC1=Nc1cc(-n2c(=O)cc(C(F)(F)F)n(C)c2=O)c(F)cc1Cl (centres unmarked) [Compound 11, Ethyl 2-{{2-chloro-5-[3,6-dihydro-3-methyl-2,6-dioxo-4-(trifluoromethyl)-1(2H)-pyrimidinyl]-4-fluorophenyl}imino}-5-fluoro-4-oxo-3-thiazolidineacetate]
6.5: ZEAMX herbicidal rating (ZEAMX (Corn, Field) [1]; rate 0.0156 kg/ha) | ZEAMX herbicidal rating (ZEAMX (Corn, Field) [1]; rate 0.0313 kg/ha) | AMBEL preemergence herbicidal rating (AMBEL (Ragweed, Common); rate 0.1250 kg/ha)
5.0: GALAP herbicidal rating (GALAP (Galium); rate 0.0313 kg/ha) | TRZAWR preemergence herbicidal rating ([4]; rate 0.2500 kg/ha)
2.0: IPOHE preemergence herbicidal rating ([3]; rate 0.0156 kg/ha) | ORYSAT preemergence herbicidal rating (ORYSAT (Rice, Tebonnet); rate 0.1250 kg/ha) | TRZAWR preemergence herbicidal rating ([4]; rate 0.1250 kg/ha) | Herbicidal rating ECHORC ([6]; 0.0625 kg/ha) | Herbicidal rating ECHORC ([6]; 0.1250 kg/ha) | Herbicidal rating ECHORC ([8]; rate 0.0625 kg/ha) | Herbicidal rating ECHORC ([8]; rate 0.1250 kg/ha)
7.5: ZEAMX herbicidal rating (ZEAMX (Corn, Field) [1]; rate 0.0625 kg/ha) | ZEAMX herbicidal rating (ZEAMX (Corn, Field) [1]; rate 0.1250 kg/ha) | CHEAL preemergence herbicidal rating ([2]; rate 0.0156 kg/ha)
5.5: AMBEL preemergence herbicidal rating (AMBEL (Ragweed, Common); rate 0.0625 kg/ha) | ZEAMX preemergence herbicidal rating (ZEAMX (Corn, Field) [5]; rate 0.2500 kg/ha)
4.5: ZEAMX preemergence herbicidal rating (ZEAMX (Corn, Field) [5]; rate 0.1250 kg/ha)
3.5: ZEAMX preemergence herbicidal rating (ZEAMX (Corn, Field) [5]; rate 0.0625 kg/ha)
0.0: CASOB herbicidal rating (CASOB (Sicklepod); rate 0.0156 kg/ha) | CASOB herbicidal rating (CASOB (Sicklepod); rate 0.0313 kg/ha) | CASOB herbicidal rating (CASOB (Sicklepod); rate 0.0625 kg/ha) | AMBEL preemergence herbicidal rating (AMBEL (Ragweed, Common); rate 0.0156 kg/ha) | ORYSAT preemergence herbicidal rating (ORYSAT (Rice, Tebonnet); rate 0.0156 kg/ha) | ORYSAT preemergence herbicidal rating (ORYSAT (Rice, Tebonnet); rate 0.0313 kg/ha) | ORYSAT preemergence herbicidal rating (ORYSAT (Rice, Tebonnet); rate 0.0625 kg/ha) | TRZAWR preemergence herbicidal rating ([4]; rate 0.0156 kg/ha) | TRZAWR preemergence herbicidal rating ([4]; rate 0.0313 kg/ha) | TRZAWR preemergence herbicidal rating ([4]; rate 0.0625 kg/ha) | ZEAMX preemergence herbicidal rating (ZEAMX (Corn, Field) [5]; rate 0.0156 kg/ha) | Herbicidal rating CYPIR (CYPIR (Rice Flatsedge); 0.0313 kg/ha) | Herbicidal rating CYPIR (CYPIR (Rice Flatsedge); 0.0625 kg/ha) | Herbicidal rating CYPIR (CYPIR (Rice Flatsedge); 0.1250 kg/ha) | Herbicidal rating CYPIR (CYPIR (Rice Flatsedge); 0.2500 kg/ha) | Herbicidal rating CYPSE (CYPSE (Flatsedge) [7]; 0.0313 kg/ha) | Herbicidal rating CYPSE (CYPSE (Flatsedge) [7]; 0.0625 kg/ha) | Herbicidal rating CYPSE (CYPSE (Flatsedge) [7]; 0.1250 kg/ha) | Herbicidal rating CYPSE (CYPSE (Flatsedge) [7]; 0.2500 kg/ha) | Herbicidal rating CYPSE (CYPSE (Flatsedge) [9]; rate 0.0313 kg/ha) | Herbicidal rating CYPSE (CYPSE (Flatsedge) [9]; rate 0.0625 kg/ha) | Herbicidal rating CYPSE (CYPSE (Flatsedge) [9]; rate 0.1250 kg/ha) | Herbicidal rating CYPSE (CYPSE (Flatsedge) [9]; rate 0.2500 kg/ha)
9.0: AMBEL preemergence herbicidal rating (AMBEL (Ragweed, Common); rate 0.2500 kg/ha) | CHEAL preemergence herbicidal rating ([2]; rate 0.0313 kg/ha) | CHEAL preemergence herbicidal rating ([2]; rate 0.0625 kg/ha) | CHEAL preemergence herbicidal rating ([2]; rate 0.1250 kg/ha) | CHEAL preemergence herbicidal rating ([2]; rate 0.2500 kg/ha) | IPOHE preemergence herbicidal rating ([3]; rate 0.1250 kg/ha) | IPOHE preemergence herbicidal rating ([3]; rate 0.2500 kg/ha)
4.0: ORYSAT preemergence herbicidal rating (ORYSAT (Rice, Tebonnet); rate 0.2500 kg/ha)
6.0: GALAP herbicidal rating (GALAP (Galium); rate 0.0625 kg/ha) | GALAP herbicidal rating (GALAP (Galium); rate 0.1250 kg/ha)
1.0: AMBEL preemergence herbicidal rating (AMBEL (Ragweed, Common); rate 0.0313 kg/ha) | Herbicidal rating ECHORC ([6]; 0.0313 kg/ha) | Herbicidal rating ECHORC ([8]; rate 0.0313 kg/ha)
3.0: CASOB herbicidal rating (CASOB (Sicklepod); rate 0.1250 kg/ha) | GALAP herbicidal rating (GALAP (Galium); rate 0.0156 kg/ha) | Herbicidal rating ECHORC ([6]; 0.2500 kg/ha) | Herbicidal rating ECHORC ([8]; rate 0.2500 kg/ha)
0.5: ZEAMX preemergence herbicidal rating (ZEAMX (Corn, Field) [5]; rate 0.0313 kg/ha)
8.0: IPOHE preemergence herbicidal rating ([3]; rate 0.0313 kg/ha) | IPOHE preemergence herbicidal rating ([3]; rate 0.0625 kg/ha)
